The record followed here is ChEMBL document CHEMBL1135139, “Solid-phase synthesis of thrombin inhibitors” (Bioorg Med Chem Lett, 2002).

This assay deals with Prothrombin (Homo sapiens, UniProt P00734). Briefly: In vitro Inhibitory concentration against Thrombin.

For the compound `N=C(N)c1ccc(CNC(=O)[C@@H]2C=CCN2C(=O)[C@@H](CC2CCCCC2)NCC(=O)O)s1`, the half-inhibitory concentration (IC50) came out at 3.6 nM.
